Here are results for six compounds from ChEMBL document CHEMBL1131686, “Synthesis and biological activities of topoisomerase I inhibitors, 6-N-amino analogues of NB-506” (Bioorg Med Chem Lett, 1999).

The nature of data set [1]: Lethal dose after intravenous administration (5 times/week for 2 weeks after tumor grew to 0.2 cme3 or larger) in mice. It is filed as toxicity. The conditions noted are these: mouse, in vivo, 336 h.
For data set [2], the target named is T1, DNA topoisomerase 1 (Homo sapiens, UniProt P11387).
T1 sequence (P11387 whole entry): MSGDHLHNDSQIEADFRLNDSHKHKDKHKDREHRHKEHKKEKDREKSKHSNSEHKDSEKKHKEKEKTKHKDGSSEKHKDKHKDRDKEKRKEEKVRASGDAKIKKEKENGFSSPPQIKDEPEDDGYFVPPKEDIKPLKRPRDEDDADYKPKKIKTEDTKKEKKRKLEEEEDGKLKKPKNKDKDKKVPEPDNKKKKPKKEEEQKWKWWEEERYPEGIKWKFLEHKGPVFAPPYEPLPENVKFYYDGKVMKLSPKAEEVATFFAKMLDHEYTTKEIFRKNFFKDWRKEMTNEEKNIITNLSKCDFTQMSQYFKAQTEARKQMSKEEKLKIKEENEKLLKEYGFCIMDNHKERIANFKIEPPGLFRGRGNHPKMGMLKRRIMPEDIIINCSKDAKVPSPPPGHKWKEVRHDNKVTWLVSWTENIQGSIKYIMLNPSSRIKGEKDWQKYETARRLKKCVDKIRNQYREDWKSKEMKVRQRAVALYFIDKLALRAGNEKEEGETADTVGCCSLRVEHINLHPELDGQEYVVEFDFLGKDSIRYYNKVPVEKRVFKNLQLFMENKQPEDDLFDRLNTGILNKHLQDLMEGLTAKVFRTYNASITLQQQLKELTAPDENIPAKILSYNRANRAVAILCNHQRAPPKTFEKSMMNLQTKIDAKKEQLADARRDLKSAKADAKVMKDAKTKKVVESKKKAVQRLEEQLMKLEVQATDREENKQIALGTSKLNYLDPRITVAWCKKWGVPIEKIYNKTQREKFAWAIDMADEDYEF
In words: In vitro activity against topoisomerase-1 mediated cleavage of supercoiled pBR322 plasmid DNA. It is filed as functional.

Data set [3] concerns P388. The experiment in a line: Effect on the formation of protein-DNA complex in P388 cells K+/SDS method. It is filed as functional, Mus musculus.
Data set [4] relates to P388. The experiment in a line: In vitro cytotoxicity (CTX) against murine leukemia cells (P388) using colorimetric tetrazolium-formazan method. It is filed as functional, cell-based. The conditions noted are these: Mus musculus.
Data set [5] concerns MKN-45. In words: In vitro cytotoxicity (CTX) against human stomach cancer cells (MKN-45) using sulforhodamine B dye-staining method. It is filed as functional, cell-based. On the technique in general: In SRB staining, fixed cells bind dye roughly in proportion to their protein.
The target of data set [6] is Protein kinase C alpha type (Homo sapiens, UniProt P17252). In words: In vitro activity evaluated against protein kinase C (using histone II-As as a substrate).
For data set [7], the system named is MKN-45. In words: Cytotoxicity against human stomach cancer cells (MKN-45) after intravenous administration (5 times/week for 2 weeks after tumor grew to 0.2 cme3 or larger). It is filed as functional, cell-based. The following applies: MKN-45, 336 h.
Data set [8] addresses Epidermal growth factor receptor (Homo sapiens, UniProt P00533). The experiment in a line: In vitro activity against Epidermal growth factor receptor (using poly(Glu4Tyr1) as a substrate).
Data set [9] is described as follows: Ratio of LD10 to that of GID75 was determined; expressed as safety margin. It is filed as functional.
Data set [10] concerns Mus musculus. In words: Cytotoxicity against human stomach cancer cells (MKN-45) implanted subcutaneously into a side flank of nude mice. It is filed as functional, Cancer cell lines.
Data set [11] deals with DNA topoisomerase II (Homo sapiens, UniProt P11388+Q02880). In words: In vitro activity against topoisomerase-2 mediated cleavage of supercoiled pBR322 plasmid DNA. It is filed as functional.

Sequence of Epidermal growth factor receptor (P00533 whole entry): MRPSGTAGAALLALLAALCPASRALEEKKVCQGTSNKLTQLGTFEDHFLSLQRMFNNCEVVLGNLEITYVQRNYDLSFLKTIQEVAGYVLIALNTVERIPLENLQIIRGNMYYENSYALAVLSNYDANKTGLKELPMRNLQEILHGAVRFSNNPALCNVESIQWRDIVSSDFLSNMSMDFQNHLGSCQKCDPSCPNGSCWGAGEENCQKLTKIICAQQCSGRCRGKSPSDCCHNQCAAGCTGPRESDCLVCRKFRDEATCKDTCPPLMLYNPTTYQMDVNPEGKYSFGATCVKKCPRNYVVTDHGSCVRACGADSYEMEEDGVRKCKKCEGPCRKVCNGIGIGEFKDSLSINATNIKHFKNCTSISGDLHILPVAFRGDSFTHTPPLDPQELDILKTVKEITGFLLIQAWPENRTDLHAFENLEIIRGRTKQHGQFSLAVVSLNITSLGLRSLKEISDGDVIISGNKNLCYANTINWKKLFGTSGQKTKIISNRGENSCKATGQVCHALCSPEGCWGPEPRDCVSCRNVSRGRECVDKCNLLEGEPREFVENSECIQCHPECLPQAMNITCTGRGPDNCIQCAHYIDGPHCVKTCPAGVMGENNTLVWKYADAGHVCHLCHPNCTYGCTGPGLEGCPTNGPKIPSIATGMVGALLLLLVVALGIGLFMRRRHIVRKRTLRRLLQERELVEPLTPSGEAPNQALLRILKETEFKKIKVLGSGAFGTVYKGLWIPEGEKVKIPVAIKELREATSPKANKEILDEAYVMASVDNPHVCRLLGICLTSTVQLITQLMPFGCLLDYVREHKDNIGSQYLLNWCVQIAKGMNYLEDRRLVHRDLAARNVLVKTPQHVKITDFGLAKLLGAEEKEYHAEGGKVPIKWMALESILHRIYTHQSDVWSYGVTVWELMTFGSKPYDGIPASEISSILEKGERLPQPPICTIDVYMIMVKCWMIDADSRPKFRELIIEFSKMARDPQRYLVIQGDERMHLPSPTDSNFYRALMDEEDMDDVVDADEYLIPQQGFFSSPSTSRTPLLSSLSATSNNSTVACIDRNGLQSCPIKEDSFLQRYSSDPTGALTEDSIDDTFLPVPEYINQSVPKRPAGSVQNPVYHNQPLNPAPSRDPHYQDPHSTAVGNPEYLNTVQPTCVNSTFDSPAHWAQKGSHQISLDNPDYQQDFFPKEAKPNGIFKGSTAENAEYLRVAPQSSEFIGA

In data set [1], `O=C1c2c(c3c4cccc(O)c4n(C4OC(CO)C(O)C(O)C4O)c3c3[nH]c4c(O)cccc4c23)C(=O)N1NCC(O)CO` (centres undefined) yielded an LD10 of 330 mg/me2. Besides, the EC50 (usually the concentration that produces a half-maximal response) in [2] came to 1000 nM. Besides, the EC200 in [3] is 0.7 µM. Moreover, the half-inhibitory concentration (IC50) (usually the concentration needed to halve the response being measured) in data set [4] is 29 nM; in [5] it was 79 nM; in data set [6], > 200000 nM; in data set [7], 79 nM; in [8], 180000 nM. The Activity in data set [9] amounted to 1.1 Ratio. The compound also showed a GID75 in [10] of 290 mg/me2.

As to `O=C1c2c(c3c4cccc(O)c4n(C4OC(CO)C(O)C(O)C4O)c3c3[nH]c4c(O)cccc4c23)C(=O)N1NCCO` (centres undefined), in data set [1], the LD10 came to 560 mg/me2. Besides, the EC50 in [2] was 430 nM; in [11], > 50000 nM. The EC200 in data set [3] stood at 0.3 µM. In addition, the half-inhibitory concentration (IC50) in data set [4] is 6 nM; in data set [5] it was 3 nM; in [6], > 200000 nM; in [7], 3 nM; in data set [8], > 200000 nM. Moreover, the Activity in data set [9] is 2.1 Ratio. The compound also came in with a GID75 in [10] of 270 mg/me2.

In data set [1], `O=CNN1C(=O)c2c(c3c4cccc(O)c4n(C4OC(CO)C(O)C(O)C4O)c3c3[nH]c4c(O)cccc4c23)C1=O` (centres undefined) gave an LD10 of 1600 mg/me2. For the same compound, the EC50 in data set [2] is 700 nM; in [11], > 50000 nM. Besides, in data set [3], the EC200 was 1.4 µM. Further, the 50% inhibitory concentration (IC50) in data set [4] is 75 nM; in data set [5], 310 nM; in [6] it was > 200000 nM; in data set [7], 310 nM; in [8], > 200000 nM. In addition, the Activity in [9] amounted to 1.4 Ratio. In [10], this compound displayed a GID75 of 1152 mg/me2.

For `N#CCCNN1C(=O)c2c(c3c4cccc(O)c4n(C4OC(CO)C(O)C(O)C4O)c3c3[nH]c4c(O)cccc4c23)C1=O` (centres undefined), in data set [1], the LD10 is 640 mg/me2. Moreover, the EC50 was 70 nM in [2] and > 50000 nM in data set [11]. This compound registered an EC200 in [3] of 0.9 µM. Besides, the 50% inhibitory concentration (IC50) in data set [4] was 6 nM; in [5] it was 20 nM; in data set [6], > 200000 nM; in [7] it was 20 nM; in data set [8], > 200000 nM. Moreover, the Activity in data set [9] is 3.2 Ratio. The GID75 in [10] worked out at 200 mg/me2.

Consider `O=C1c2c(c3c4cccc(O)c4n(C4OC(CO)C(O)C(O)C4O)c3c3[nH]c4c(O)cccc4c23)C(=O)N1NC(CO)CO` (centres undefined), for which the LD10 in [1] is recorded as 390 mg/me2. Besides, the 50% effective concentration (EC50) is 580 nM in [2] and > 50000 nM in [11]. This compound had an EC200 in data set [3] of 0.45 µM. Further, the IC50 in [4] is 17 nM; in data set [5], 130 nM; in data set [6], > 200000 nM; in [7], 130 nM. The Activity in data set [9] turned out to be 5 Ratio. Moreover, the GID75 in data set [10] is on record as 78 mg/me2.

Turning to `O=C(CO)NN1C(=O)c2c(c3c4cccc(O)c4n(C4OC(CO)C(O)C(O)C4O)c3c3[nH]c4c(O)cccc4c23)C1=O` (centres undefined), the LD10 in [1] is recorded as > 1500 mg/me2. Moreover, the 50% effective concentration (EC50) is 2800 nM in data set [2] and > 50000 nM in data set [11]. The same compound showed an EC200 in data set [3] of 5 µM. Also, the concentration for half-maximal inhibition (IC50) in data set [4] was 240 nM; in [5], 660 nM; in data set [6], > 200000 nM; in [7], 660 nM; in [8], > 200000 nM. Moreover, in [9], the Activity is > 1.3 Ratio. This compound also showed a GID75 in [10] of 1200 mg/me2.
